Results on two compounds are retold here after US9458217B2, “Methods of managing graft versus host disease” (EMORY UNIVERSITY, priority 2013, dated 2016).

Entries after “also recorded” stand apart in the source; their conditions may differ. Where no end group is shown, it is not given here.

One data set has as its system cross-dressed CD11c+ APC. The experiment in a line: Drug inhibition of trogocytosis in MLR (frequency of cross-dressed CD11c+ APC by flow cytometry). It counts as cell-based, mice. The protocol:
The frequency of cross-dressed CD11c+ APC on day 6 of MLR was assessed by flow cytometry.
Whether drugs can inhibit cross-dressed APCs from facilitating antigen presentation to donor T cells and prevent GVHD following allo-HSCT was tested. Cross-dressed donor CD11c+ APCs were generated in vivo following allo-HSCT (FIG. 1).
Background: In flow cytometry, cells or beads pass a laser one at a time.

The next data set relates to T cells. The experiment in a line: T cell proliferation in primary MLR with drug-treated bone marrow. In kind it is cell-based, mice.
Another data set deals with CD11c+ cells. Description: Cell viability / direct cytotoxicity on drug exposure in vitro. The conditions noted are these: at the doses that inhibit trogocytosis (FIG. 3).

For `CC(=O)O[C@H]1C(=O)[C@@]2(C)[C@H]([C@H](OC(=O)c3ccccc3)[C@]3(O)C[C@H](OC(=O)[C@H](O)[C@@H](NC(=O)c4ccccc4)c4ccccc4)C(C)=C1C3(C)C)[C@]1(OC(C)=O)CO[C@@H]1C[C@@H]2O` [paclitaxel], the “exchange of plasma membrane fragments (trogocytosis; frequency of cross-dressed CD11c+ APC)” value in the data set on cross-dressed CD11c+ APC (in vitro generated cross-dressed CD11c+ cells, day 6 of MLR, flow cytometry (FIG. 3)) is listed as “inhibited”. Moreover, the “semi-direct presentation of allo-antigen to T cells” value with cross-dressed CD11c+ APC (summary statement of the data) was “reduce semi-direct presentation”. Further, the “T cell proliferation in primary MLR” value in the data set with T cells (bone marrow treated with 0.05 uM, compared to non-drug treated bone marrow) was “significantly decreased”. Besides, in the data set on T cells (summary statement of the data), the allo-reactivity result is on record as “reduce allo-reactivity”. In addition, in the data set on CD11c+ cells, the “cell viability / direct cytotoxic effects” value is reported as “without direct cytotoxic effects; also recorded: preserving cell viability”.
Regarding “KPRRPYTDNYTRLRKQMAVKKYLNSILN-NH2 [VIPHyb]”, the “cell viability / direct cytotoxic effects” value in the data set on CD11c+ cells is “without direct cytotoxic effects”; in the data set with CD11c+ cells (listed as VIP antagonist) it was “preserving cell viability”.
